Results on 17 compounds are retold here after patent US9561228B2 (Celgene Avilomics Research, Inc., priority 2013, dated 2017).

One experiment concerns the target T1, Erk1 (Homo sapiens, UniProt P27361).
T1 construct: purchased Millipore 14-439
Briefly: Protein Mass Modification Assay (intact protein MALDI, 60 min, 10-fold excess of compound). In kind it is binding. The method in brief: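 Human Erk1 was incubated 60 min at room temperature with a 10-fold molar excess of compound, then analysed as intact protein by MALDI with sinapinic acid matrix. The centroid mass shift versus untreated protein was divided by compound molecular weight to give percent modified protein.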

Another experiment addresses T2, MEK1 activated ERK1 (Homo sapiens, UniProt P27361).
T2 construct: purchased Millipore (Billerica, Mass.) 14-439-K
As to the kind of experiment: Omnia continuous-read kinase assay for potency against MEK1 activated ERK1. Type of experiment: biochemical. The method in brief: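 Apparent IC50 came from initial reaction slopes (RFU vs time) plotted against log inhibitor with a variable-slope fit. Reactions were started with ERK1 (4 nM final) added to 50 μM ATP, roughly at its appKM, and 10 μM Sox-conjugated ST17 peptide in 20 mM Tris pH 7.5, 5 mM MgCl2. Fluorescence was monitored every 71 seconds.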

For experiment [1], the system named is ERK1/2 phosphorylation of p90RSK in HCT116 cells. As to the kind of experiment: Detection of total and phospho-RSK by MSD ELISA (HCT116). As to conditions: Homo sapiens, HCT-116, read-out: ERK1/ERK2 PRSK HCT116 EC50. Type of experiment: cell-based. The method in brief:
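HCT116 cells treated with compound in RPMI/10% FBS for 2 h at 37° C, then lysed. Phospho-RSK (Ser380) and total RSK in lysates measured by MSD sandwich electrochemiluminescence ELISA as a readout of ERK1/2 activity.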
(In general: An ELISA detects its analyte on a solid surface through an enzyme-linked reagent.)

Where [2] appears, read: MEK1 activated ERK1, ATP at KM, read-out: ERK1 Omnia WT ATP KM IC50.

Structures are written as SMILES. Where two headings read alike, the source gives them in different places.

T1 sequence (P27361 whole entry): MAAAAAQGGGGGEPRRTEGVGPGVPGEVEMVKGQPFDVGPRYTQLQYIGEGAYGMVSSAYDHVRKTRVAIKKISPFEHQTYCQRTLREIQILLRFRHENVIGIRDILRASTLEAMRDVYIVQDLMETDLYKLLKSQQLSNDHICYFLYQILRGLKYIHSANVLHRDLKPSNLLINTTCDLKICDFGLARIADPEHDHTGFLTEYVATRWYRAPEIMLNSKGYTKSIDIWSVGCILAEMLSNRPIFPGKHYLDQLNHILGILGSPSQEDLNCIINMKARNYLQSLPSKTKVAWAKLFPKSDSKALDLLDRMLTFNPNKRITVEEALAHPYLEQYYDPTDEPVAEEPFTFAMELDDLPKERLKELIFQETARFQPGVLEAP
T2 sequence (P27361 whole entry): as above

Consider `C=CC(=O)Nc1cc(C)ccc1Nc1nc(NC2CCC(=O)NC2)ncc1C(F)(F)F` (racemic) [Compound I-368, Rac-N-(5-methyl-2-((2-((6-oxopiperidin-3-yl)amino)-5-(trifluoromethyl)pyrimidin-4-yl)amino)phenyl)acrylamide], for which the “ERK1 Mass Mod (%)” value on Erk1 is given as “E (a mass modification of ≧70%)”. In addition, on MEK1 activated ERK1 (ATP at KM, WT), the IC50 lay within 101 to 500 nM. Further, the EC50 in experiment [1] lay within 101 to 500 nM.
With `C=CC(=O)Nc1cc(C)ccc1Nc1nc(Nc2cc(C(C)=O)ccc2C)ncc1C(F)(F)F` [Compound I-84, N-(2-((2-((5-Acetyl-2-methylphenyl)amino)-5-(trifluoromethyl)pyrimidin-4-yl)amino)-5-methylphenyl)acrylamide], the “ERK1 Mass Mod (%)” value at Erk1 is listed as “E (key: E: a mass modification of ≧70%; F: a mass modification of 31-69%; G: a mass modification ≦30%)”. In addition, at MEK1 activated ERK1 (setting [2]), the half-inhibitory concentration (IC50) was 101 to 500 nM.
For the compound `C=CC(=O)Nc1ccccc1Nc1nc(Nc2cc(OC)ncc2C)ncc1C(F)(F)F` [Compound I-85, N-(2-((2-((2-Methoxy-5-methylpyridin-4-yl)amino)-5-(trifluoromethyl)pyrimidin-4-yl)amino)phenyl)acrylamide], the “ERK1 Mass Mod (%)” value on Erk1 was “E (a mass modification of ≧70%)”. Also, the half-inhibitory concentration (IC50) at MEK1 activated ERK1 (setting [2]) is less than 100 nM. Besides, the EC50 in experiment [1] was less than 100 nM.
As to `C=CC(=O)Nc1ccccc1Nc1nc(Nc2cc(OC)nc(N3CCN(C(C)=O)CC3)c2)ncc1C(F)(F)F` [Compound I-92], the “ERK1 Mass Mod (%)” value on Erk1 is on record as “E (a mass modification of ≧70%)”. In addition, the IC50 at MEK1 activated ERK1 (setting [2]) was less than 100 nM. Moreover, the EC50 in experiment [1] is less than 100 nM.
For the compound `C=CC(=O)Nc1cc(C)ccc1Nc1nc(Nc2cc(OC)nc(N3CCN(C(C)=O)CC3)c2)ncc1C(F)(F)F` [Compound I-93, N-(2-((2-((2-(4-Acetylpiperazin-1-yl)-6-methoxypyridin-4-yl)amino)-5-(trifluoromethyl)pyrimidin-4-yl)amino)-5-methylphenyl)acrylamide], the “ERK1 Mass Mod (%)” value at Erk1 is “E (key: E: a mass modification of ≧70%; F: a mass modification of 31-69%; G: a mass modification ≦30%)”. In addition, the half-inhibitory concentration (IC50) at MEK1 activated ERK1 (setting [2]) was 101 to 500 nM. Besides, the EC50 in experiment [1] was less than 100 nM.
As for `C=CC(=O)Nc1cc(C)ccc1Nc1nc(Nc2cc(OC)nc(OC)c2)ncc1C(F)(F)F` [Compound I-96], the “ERK1 Mass Mod (%)” value on Erk1 was “E (key: E: a mass modification of ≧70%; F: a mass modification of 31-69%; G: a mass modification ≦30%)”. Moreover, the IC50 at MEK1 activated ERK1 (setting [2]) is 101 to 500 nM.
On to `C=CC(=O)Nc1cc(C)ccc1Nc1nc(Nc2cc(NCCOC)nc(OC)c2)ncc1C(F)(F)F` [Compound I-294, N-(2-((2-((2-methoxy-6-((2-methoxyethyl)amino)pyridin-4-yl)amino)-5-(trifluoromethyl)pyrimidin-4-yl)amino)-5-methylphenyl)acrylamide], for which, on Erk1, the “ERK1 Mass Mod (%)” value is “E (a mass modification of ≧70%)”. The IC50 on MEK1 activated ERK1 (setting [2]) lay within 101 to 500 nM. For the same compound, in experiment [1], the EC50 is less than 100 nM.
In the case of `C=CC(=O)Nc1cc(C)ccc1Nc1nc(Nc2cc(N[C@H]3CC[C@](C)(O)CC3)nc(OC)c2)ncc1C(F)(F)F` [Compound I-327, N-(2-((2-((2-((trans-4-hydroxy-4-methylcyclohexyl)amino)-6-methoxypyridin-4-yl)amino)-5-(trifluoromethyl)pyrimidin-4-yl)amino)-5-methylphenyl)acrylamide], at Erk1, the “ERK1 Mass Mod (%)” value is reported as “E (a mass modification of ≧70%)”. The IC50 on MEK1 activated ERK1 (setting [2]) was 101 to 500 nM. Further, the EC50 in experiment [1] is less than 100 nM.
With `C=CC(=O)Nc1cc(C)ccc1Nc1nc(Nc2cc(P(C)(C)=O)ncc2C)ncc1C(F)(F)F` [Compound I-343, N-(2-((2-((2-(dimethylphosphoryl)-5-methylpyridin-4-yl)amino)-5-(trifluoromethyl)pyrimidin-4-yl)amino)-5-methylphenyl)acrylamide], the “ERK1 Mass Mod (%)” value on Erk1 is recorded as “F (a mass modification of 31-69%)”. Further, the IC50 on MEK1 activated ERK1 (ATP at KM, WT) was in the range of 101 to 500 nM. Also, the EC50 in experiment [1] was in the range of 101 to 500 nM.
As to `C=CC(=O)Nc1cc(C)ccc1Nc1nc(Nc2nc(OC)ncc2Cl)ncc1C(F)(F)F` [Compound I-344, N-(2-((2-((5-chloro-2-methoxypyrimidin-4-yl)amino)-5-(trifluoromethyl)pyrimidin-4-yl)amino)-5-methylphenyl)acrylamide], the “ERK1 Mass Mod (%)” value at Erk1 was “E (a mass modification of ≧70%)”. Besides, the EC50 in experiment [1] lay in the range of 101 to 500 nM.
As for `C#CC(=O)Nc1cc(C)ccc1Nc1nc(Nc2cc(OC)ncc2C)ncc1C(F)(F)F` [Compound I-345, N-(2-((2-((2-methoxy-5-methylpyridin-4-yl)amino)-5-(trifluoromethyl)pyrimidin-4-yl)amino)-5-methylphenyl)propiolamide], at Erk1, the “ERK1 Mass Mod (%)” value is listed as “E (a mass modification of ≧70%)”. For the same compound, the concentration for half-maximal inhibition (IC50) on MEK1 activated ERK1 (ATP at KM, WT) was 101 to 500 nM. Moreover, in experiment [1], the EC50 was greater than 1000 nM.
As to `C=CC(=O)Nc1cc(C)ccc1Nc1nc(Nc2nc(OC)ncc2C#N)ncc1C(F)(F)F` [Compound I-346, N-(2-((2-((5-cyano-2-methoxypyrimidin-4-yl)amino)-5-(trifluoromethyl)pyrimidin-4-yl)amino)-5-methylphenyl)acrylamide], at Erk1, the “ERK1 Mass Mod (%)” value is on record as “E (a mass modification of ≧70%)”. Besides, the IC50 at MEK1 activated ERK1 (ATP at KM, WT) lay within 501 to 999 nM. The EC50 in experiment [1] lay in the range of 101 to 500 nM.
Regarding `C=CC(=O)Nc1cc(C)ccc1Nc1nc(Nc2nc(OC)ncc2C)ncc1C(F)(F)F` [Compound I-347, N-(2-((2-((2-methoxy-5-methylpyrimidin-4-yl)amino)-5-(trifluoromethyl)pyrimidin-4-yl)amino)-5-methylphenyl)acrylamide], on Erk1, the “ERK1 Mass Mod (%)” value is “E (a mass modification of ≧70%)”. In addition, on MEK1 activated ERK1 (ATP at KM, WT), the half-maximal inhibitory concentration (IC50) was less than 100 nM. Besides, in experiment [1], the EC50 fell in the range of 101 to 500 nM.
As for `C=CC(=O)Nc1cc(C)ccc1Nc1nc(Nc2nc(OC)ncc2OC)ncc1C(F)(F)F` [Compound I-349, N-(2-((2-((2,5-dimethoxypyrimidin-4-yl)amino)-5-(trifluoromethyl)pyrimidin-4-yl)amino)-5-methylphenyl)acrylamide], on Erk1, the “ERK1 Mass Mod (%)” value was “E (a mass modification of ≧70%)”. Also, the IC50 at MEK1 activated ERK1 (ATP at KM, WT) was 101 to 500 nM. Besides, the EC50 in experiment [1] lay in the range of 101 to 500 nM.
On to `C=CC(=O)Nc1cc(C)ccc1Nc1nc(Nc2nc(OC)ccc2Cl)ncc1C(F)(F)F` [Compound I-360, N-(2-((2-((3-chloro-6-methoxypyridin-2-yl)amino)-5-(trifluoromethyl)pyrimidin-4-yl)amino)-5-methylphenyl)acrylamide], for which the “ERK1 Mass Mod (%)” value on Erk1 was “E (a mass modification of ≧70%)”. For the same compound, in experiment [1], the EC50 is 501 to 999 nM.
Take `C=CC(=O)Nc1cc(C)ccc1Nc1nc(Nc2cc(OC)cnc2Cl)ncc1C(F)(F)F` [Compound I-361, N-(2-((2-((2-chloro-5-methoxypyridin-3-yl)amino)-5-(trifluoromethyl)pyrimidin-4-yl)amino)-5-methylphenyl)acrylamide]: on Erk1, the “ERK1 Mass Mod (%)” value is on record as “E (a mass modification of ≧70%)”. Also, the EC50 in experiment [1] was in the range of 101 to 500 nM.
In the case of `C=CC(=O)Nc1cc(C)ccc1Nc1nc(Nc2nc(O)ncc2C)ncc1C(F)(F)F` [Compound I-364, N-(2-((2-((2-hydroxy-5-methylpyrimidin-4-yl)amino)-5-(trifluoromethyl)pyrimidin-4-yl)amino)-5-methylphenyl)acrylamide], the “ERK1 Mass Mod (%)” value at Erk1 is recorded as “E (a mass modification of ≧70%)”. For the same compound, in experiment [1], the EC50 lay in the range of 101 to 500 nM.

For orientation: IC50 means the concentration that inhibits the measured activity by half.
